For experiment [1], the system named is PBMCs from HIV-1-infected HLA-C*14:02+ or HLA-C*14:03+ individuals. In words: ex vivo IFN-γ ELISPOT assay. The format is cell-based, human. Particulars: 1 μM peptide; for HLA-C*14 subtype of the individuals in whom responses were detected: initial screening, 10 HLA-C*14:02+ and 10 HLA-C*14:03+ individuals. The source says:
To clarify whether these HLA-C*14:02- and C*14:03-binding HIV-1 peptides were T cell epitopes, we investigated T cell responses to these peptides in HIV-1-infected individuals. We assessed T cell targeting of 14 putative HIV-1 epitope sites by testing responses to the 14 NL4-3 sequence-based peptides and 9 variant peptides in 10 HLA-C*14:02^+ and 10 HLA-C*14:03^+ treatment-naive individuals living with HIV-1 subtype B using ex vivo gamma interferon (IFN-γ) ELISPOT assays. To identify HLA-C*14-restricted immunodominant epitopes, we investigated whether these peptides were recognized by virus-specific T cells in 20 individuals enabling detection of epitopes typically targeted in >5% of HLA-C*14^+ individuals. […] T cell responses to variant versions of the Gag LY9, Pol KM9, and Nef IF8 peptides were detected in a number of individuals similar to the number with responses to their NL4-3 sequence-based counterparts (Fig. 3A).
FIG 3 T cell responses to HLA-C*14:02- and/or HLA-C*14:03-binding HIV-1 peptides. (A) T cell responses to HLA-C*14:02/03-binding peptides in 20 chronically HIV-1-infected Japanese individuals with HLA-C*14:02 or HLA-C*14:03. T cell targeting of 14 putative epitopes was analyzed by testing responses to 14 NL4-3 sequence-based peptides and 9 peptides that were sequence variants thereof in ex vivo IFN-γ ELISPOT assays (peptides tested at a concentration of 1 μM). A positive response was defined as >100 spots/10^6 PBMCs (indicated by the horizontal dotted line). (B) Correlation between peptide binding to HLA-C*14:02 or HLA-C*14:03 and the frequency of responders to these peptides in HLA-C*14:02^+ (blue) and HLA-C*14:03^+ (red) individuals for NL4-3 sequence-based versions of the peptides only (left) or both NL4-3 sequence-based and variant peptides (right). Statistical analyses were performed using Pearson's correlation test.
PBMCs were separated from whole blood and stored at −80°C. ELISPOT assays were performed as previously described ([13]). Briefly, 1 × 10^5 PBMCs from HIV-1-infected individuals and a 1 μM concentration of each HLA-C*14:02- and -C*14:03-eluted HIV-1 peptide were added to 96-well polyvinylidene plates (Millipore) that had been coated overnight with 5 μg/mL anti-IFN-γ MAb 1-D1K (Mabtech). The plates were incubated for 16 h at 37°C in 5% CO2, and then the cells were stained as previously described in detail ([13]). The spots were counted with an Eliphoto-Counter instrument (Minerva Teck). The number of spots was calculated per 10^6 PBMCs; 100 spots/10^6 PBMCs was defined as a positive response, as described previously ([13]).

Another experiment concerns the target HLA-C*14:03 (Homo sapiens, UniProt P10321, A176E/A330V/A35S/A97T/C350S/D114A/D33S/L171W/L180R/L218V/M285V/M309V/M331V/P208H/Q277E/Q291P/R121W/R243W/R45H/S123F/S297R/S48A/T329A/T363A/V319A). In words: LC-MS/MS identification of HLA-bound HIV-1 peptides from NL4-3-infected .221-C1403 cells. The note with it: HIV-1 NL4-3-infected .221-C1403 cells, W6/32 immunoprecipitation, two independent replicate experiments. Type of experiment: binding. Also noted: key: ●: Closed circles indicate the peptide which was identified in HLA-C*1402 or/and -C*1403 expressing cells. How it is done: (§1) 721.221 cells expressing CD4 and HLA-C*14:02 (.221-C1402) or HLA-C*14:03 (.221-C1403) were infected with the laboratory-adapted NL4-3 HIV-1 strain. HLA-peptide complexes were isolated from cell lysates by immunoprecipitation with the anti-HLA class I antibody W6/32; then, peptides were eluted, fractionated by high-performance liquid chromatography (HPLC), and finally analyzed by LC-MS/MS. Two independent replicate experiments were performed, in which a total of 7,970 and 8,447 unique 8- to 13-mer peptide sequences were identified from .221-C1402 and .221-C1403 cells, respectively (Fig. 1A). Of these peptides, 6,163 were identified in both the C*14:02- and C*14:03-bound peptide data sets, while other peptides were detected in the acid-eluted fraction from only a single allele. […] These motifs are consistent with the HLA-C*1402/03 peptide motifs previously estimated using reported epitopes ([29]).
(§2) .221-C1402 and .221-C1403 cells were infected with HIV-1 NL4-3 in a low volume of RPMI 1640 medium (Thermo Fisher) containing 10% fetal bovine serum (FBS), 2 mM L-glutamine, 100 U/mL penicillin, 100 μg/mL streptomycin, and 10 mM HEPES (R10). Fifty microliters of NL4-3 stock virus (Reverse transcriptase activity (RT) value = 4 × 10^2 ng/mL) was added to 8 × 10^6 .221-C1402 cells or .221-C1403, and the cells were then incubated for 1.5 h at 37°C, after which 20 mL of R10 was added and the cells were cultured overnight. At day 1 postinfection, a further 20 mL R10 was added, and cells were split (1:2) on day 2. On day 3 postinfection, the proportion of cells infected with HIV-1 was determined by intracellular p24 staining, as previously described ([46]). Infected flasks were then harvested for immunoprecipitation of HLA-peptide complexes.
(§3) .221-C1402 cells or .221-C1403 cells infected with NL4-3 (1.5 × 10^8 to 2 × 10^8 cells) were harvested, washed in phosphate-buffered saline (PBS), and lysed in 5 mL of lysis buffer (1% IGEPAL 630, 300 mM NaCl, 100 mM Tris [pH 8.0], plus protease inhibitors) at 4°C for 45 min. Two centrifugation steps (2,000 × g for 10 min followed by 20,000 × g for 30 min at 4°C) were next employed to clear the lysates of cell debris prior to overnight capture of HLA-peptide complexes on W6/32-coated protein A‐Sepharose beads. W6/32-bound HLA-peptide complexes were sequentially washed with 10 to 20 mL of wash buffer 1 (0.005% IGEPAL, 50 mM Tris [pH 8.0], 150 mM NaCl, 5 mM EDTA), wash buffer 2 (50 mM Tris [pH 8.0], 150 mM NaCl), wash buffer 3 (50 mM Tris [pH 8.0], 400 mM NaCl), and finally wash buffer 4 (50 mM Tris [pH 8.0]) under gravity flow in Econo-Column glass chromatography columns (Bio-Rad). Peptide-HLA complexes were eluted from the beads with 5 mL of 10% acetic acid and, after drying under vacuum, were loaded onto a 4.6- by 50-mm ProSwift RP-1S column (Thermo Fisher Scientific) and eluted from an Ultimate 3000 HPLC system (Thermo Scientific) using a 500-μL/min flow rate over 10 min from 2% to 34% buffer B (0.1% trifluoroacetic acid [TFA] in acetonitrile) in buffer A (0.1% TFA in water). Alternate fractions were pooled to give two final peptide fractions that were dried for LC-MS/MS analysis.
(§4) Each HPLC-eluted sample was resuspended in 20 μL loading buffer, and 9 μL of it was injected onto a 3-μm-particle-size 0.075-mm by 150-mm Acclaim PepMap RSLC C18 column and further loaded onto a 2-μm-particle-size, 75-μm by 50-cm Acclaim PepMap RSLC C18 column using an Ultimate 3000 nUPLC system (Thermo Scientific). A linear gradient of 3 to 25% buffer B (0.1% formic acid, 5% dimethyl sulfoxide [DMSO] in acetonitrile) in buffer A (0.1% formic acid, 5% DMSO in water) was applied over 1 h to elute peptides from the column (flow rate of […]). Peptides were introduced, using an Easy-Spray source at 2,000 V at 40°C, into a Fusion Lumos mass spectrometer (Thermo Scientific). The ion transfer tube temperature was set to 305°C. […]

For another experiment, the target named is HLA-C*14:02 (Homo sapiens, UniProt P10321, A176E/A330V/A35S/A97T/C350S/D114A/D33S/L171W/L180R/L218V/M285V/M309V/M331V/P208H/Q277E/Q291P/R121W/R243W/S123F/S297R/S48A/T329A/T363A/V319A). Put plainly: LC-MS/MS identification of HLA-bound HIV-1 peptides from NL4-3-infected .221-C1402 cells. Type of experiment: binding. Also noted: key: ●: Closed circles indicate the peptide which was identified in HLA-C*1402 or/and -C*1403 expressing cells. The note with it: HIV-1 NL4-3-infected .221-C1402 cells, W6/32 immunoprecipitation, two independent replicate experiments. Here is the method:
as §1, §2, §3, §4

[2] abbreviates: 10 HLA-C*14:02+ and 10 HLA-C*14:03+ treatment-naive individuals, positive >100 spots/10^6 PBMCs.

Entries after “also recorded” stand apart in the source; their conditions may differ.

“AFHHMAREK [Nef AL9-5M9K, variant of Nef AL9, …, present in Japanese cohort viruses]”: in experiment [1] (setting [2]), the “T cell responses to peptide detected” value is listed as “not detected in any of the 20 individuals”.

In the case of “AFPQGKAREF [Pol AF10, HIV-1 NL4-3 Pol 7–16 peptide […], eluted only, not synthesized]”, the “C1403: peptide identified by LC-MS/MS in HLA-I eluate” value (shortened to “C1403: peptide identified by LC-MS/MS”) on HLA-C*14:03 is listed as “●”. Moreover, the “C1402: peptide identified by LC-MS/MS in HLA-I eluate” value (shortened to “C1402: peptide identified by LC-MS/MS”) at HLA-C*14:02 is reported as “●”.

For “AFVTIGKIGNM [Env AM11, HIV-1 NL4-3 Env 316–326 peptide […], eluted only, not synthesized]”, the “C1403: peptide identified by LC-MS/MS” value at HLA-C*14:03 is given as “●”.

As to “FHHVAREL [Nef FL8, HIV-1 NL4-3 Nef 191–198 peptide FHHVAREL]”, the “C1403: peptide identified by LC-MS/MS” value at HLA-C*14:03 is “●”. Moreover, the “C1402: peptide identified by LC-MS/MS” value on HLA-C*14:02 is on record as “●”.

Consider “FYVDGAANRET [Pol FT11, HIV-1 NL4-3 Pol 595–605 peptide […]]”, for which, at HLA-C*14:03, the “C1403: peptide identified by LC-MS/MS” value is reported as “●”.

For the sequence “IYHTQGYFP [Nef IP9, HIV-1 NL4-3 Nef 114–122 peptide …]”, the “C1403: peptide identified by LC-MS/MS” value at HLA-C*14:03 is given as “●”. In addition, the “C1402: peptide identified by LC-MS/MS” value at HLA-C*14:02 is “●”.

Turning to “KYHNNWRAM [Pol KM9-4N, variant of Pol KM9, …, present in Japanese cohort viruses]”, in experiment [1] (setting [2]), the “T cell responses to peptide detected” value is listed as “detected in one or more individuals”. The “HLA-C*14 subtype of the individuals in whom responses were detected” value in experiment [1] was “detected in only HLA-C*14:02^+ or HLA-C*14:03^+ individuals”.

Take “LFNTVAVL [Gag LL8-2F5V, variant of Gag LL8, LFNTVAVL, present in Japanese cohort viruses]”: in experiment [1] (setting [2]), the “T cell responses to peptide detected” value was “detected in one or more individuals; also recorded: weak response” and the “number of individuals with T cell response, of 20 tested” value is listed as “one”. The “HLA-C*14 subtype of the individuals in whom responses were detected” value in experiment [1] is on record as “detected in only HLA-C*14:02^+ or HLA-C*14:03^+ individuals”.

Consider “LFNTVAVLY [Gag LY9-2F5V, variant of Gag LY9, …, present in Japanese cohort viruses]”, for which, in experiment [1] (setting [2]), the “T cell responses to peptide detected” value is “detected in one or more individuals”.

As to “LYNTIAVL [Gag LL8, HIV-1 NL4-3 Gag 78–85 peptide LYNTIAVL eluted from HLA-C*14-expressing cells]”, the “T cell responses to peptide detected” value in experiment [1] (setting [2]) was “No T cell recognition; also recorded: no strong T cell responses”. The “C1403: peptide identified by LC-MS/MS” value at HLA-C*14:03 is recorded as “●”. For the same sequence, at HLA-C*14:02, the “C1402: peptide identified by LC-MS/MS” value is recorded as “●”.

Consider “PQGKAREF [Pol PF8, HIV-1 NL4-3 Pol 9–16 peptide PQGKAREF, eluted only, not synthesized]”, for which the “C1403: peptide identified by LC-MS/MS” value at HLA-C*14:03 is “●”.

“SFNISTSI [Env SI8, HIV-1 NL4-3 Env 158–165 peptide SFNISTSI, eluted only, not synthesized]”: the “C1403: peptide identified by LC-MS/MS” value on HLA-C*14:03 was “●”.

“VTIGKIGNM [Env VM9, HIV-1 NL4-3 Env 318–326 peptide …, eluted only, not synthesized]”: at HLA-C*14:02, the “C1402: peptide identified by LC-MS/MS” value was “●”.

As to “VWGRDNNSL [Pol VWL9, HIV-1 NL4-3 Pol 33–41 peptide …, eluted only, not synthesized]”, the “C1403: peptide identified by LC-MS/MS” value at HLA-C*14:03 is listed as “●”. Also, on HLA-C*14:02, the “C1402: peptide identified by LC-MS/MS” value is on record as “●”.

With “VYHTQGYF [Nef IF8-1V, variant of Nef IF8, VYHTQGYF, present in Japanese cohort viruses]”, the “T cell responses to peptide detected” value in experiment [1] (setting [2]) is on record as “detected in one or more individuals”.

Turning to “VYLAWVPAH [Pol VH9, HIV-1 NL4-3 Pol 686–694 peptide …]”, the “C1403: peptide identified by LC-MS/MS” value at HLA-C*14:03 is on record as “●”.

As for “VYYDPSKDLIA [Pol VA11, HIV-1 NL4-3 Pol 472–482 peptide […]]”, the “C1403: peptide identified by LC-MS/MS” value at HLA-C*14:03 is listed as “●”.

In the case of “YTSLIHSLI [Env YI9, HIV-1 NL4-3 Env 638–646 peptide …, eluted only, not synthesized]”, the “C1402: peptide identified by LC-MS/MS” value on HLA-C*14:02 was “●”.

For the origin of these results see paper PMC9131871, “Impact of Micropolymorphism Outside the Peptide Binding Groove in the Clinically Relevant Allele HLA-C*14 on T Cell Responses in HIV-1 Infection” (Journal of Virology, 2022).
